From PubChem BioAssay AID2060488 (Molecular Pharmacology Branch, DTP, NCI, 2025)
pIC50: −log10 of the molar value. Values joined by “and” are separate entries in the source; they are usually repeats but may differ in a detail not shown here. Identical values can stand only once.

Test system: 966289-007-R4-J1-PDC complex spheroid viability
Assay: Anticancer human tumor 966289-007-R4-J1-PDC patient-derived pancreatic adenocarcinoma cell line growth inhibition [GQUAD]
Settings: for viability, T/C: stronger effect = lower value; active = viability on the fitted dose curve at most 10% of control; inactive = the rest
Source text: DNA G-quadruplex Stabilizer Agents in Combinations in Complex Spheroids
A high-throughput screen of multi-cell type tumor spheroids was designed to identify active combinations of DNA G-quadruplex stabilizer agents and targeted small molecules. Complex spheroids include a stromal component modeled by human endothelial cells (HUVEC) and fibroblasts modeled by human mesenchymal stem cells (MSCs). The concentration ranges selected for each drug and investigational agent were based upon clinically achievable concentrations if the clinical Cmax of the agent was known.
Compounds. The drugs and investigational agents: pidnarulex (CX-5461; NSC782164), APTO-253 (NSC789042), BRACO-19 (NSC847499), peposertib (NSC802822), ceralasertib (NSC780249), elimusertib (NSC800525), camonsertib (NSC841442), AZD-1390 (NSC803789), olaparib (NSC753686), talazoparib (NSC767125), ART-558 (NSC835418), sotorasib (NSC818433), MRTX-1133 (NSC836407), SN-38 (NSC673596), topotecan (NSC609699), etoposide (NSC141540), doxorubicin (NSC123127), gemcitabine (NSC613327), 5-fluorouracil (NSC19893), paclitaxel (NSC125973), vemurafenib (NSC761431), panobinostat (NSC761190), R-306465 (JNJ-16241199; NSC773264), adavosertib (NSC754352), TP-3654 (NSC805149), carboplatin (NSC241240), KSQ-4279 (NSC840948), and staurosporine (NSC755774) were obtained from the National Cancer Institute (NCI) Developmental Therapeutics Program Chemical Repository (34). The FDA-approved anticancer drug set is available from the NCI Developmental Therapeutics Program. […] The stock solutions were prepared in dimethyl sulfoxide (DMSO, Sigma-Aldrich, St. Louis, MO, cat. D2650) at 800-fold the tested concentration and stored at -70 degrees C prior to their use. All drugs and investigational agents were tested over a range starting from a high concentration at or near the clinical Cmax and decreasing in half-log increments. If the clinical Cmax for an agent had not been determined, the highest concentration tested was 10 microM.
2.3 Cell Culture. All cells were maintained in an incubator at 37 degrees C and 5% CO2 with 95% humidity. The PDC lines were cultured according to standard operating procedures established by the NCI PDMR. All PDCs were thawed and cultured in Matrigel-coated flasks prepared with a working solution of 1X Ham's F-12 nutrient mix, without supplementation (Invitrogen, cat. 11765054), 100 U/mL penicillin-streptomycin (Invitrogen, cat. 15140122), and 2.5% Matrigel (Corning Inc., cat. 354248) for the first three passages. The 857933-349-R-J2-PDC line was cultured in 6C/Colon 1B media, which includes advanced DMEM/F-12 (Thermo Fisher Scientific, cat. 12634028), 10 mM HEPES (Thermo Fisher Scientific, cat. 15630080), 1X GlutaMAX supplement (Thermo Fisher Scientific, cat. 35050061), 0.1 mg/mL primocin (InvivoGen, cat. ant-pm-2), 10% defined fetal bovine serum, heat inactivated (HyClone Laboratories Inc., cat. SH30070.03HI), 50% L-WRN conditioned media (ATCC, cat. CRL-3276), 1.25 mM N-Acetyl-L-cysteine (Sigma-Aldrich, cat. A9165), 10 mM nicotinamide (Sigma-Aldrich, cat. N0636), 1X B-27 supplement (Thermo Fisher Scientific, cat. 17504044), 1X N-2 supplement (Thermo Fisher Scientific, cat. 17502048), 10 microM Y-27632 dihydrochloride (Tocris Bioscience, cat. 1254), and 50 ng/mL human EGF recombinant protein (Thermo Fisher Scientific, cat. PHG0311). The 485176-168-R4-J1-PDC line was cultured in Panc media, which includes all 6C/Colon 1B media components plus 100 ng/mL human FGF-10 (Thermo Fisher Scientific, cat. 100-26), 500 nM SB-431542 (Selleckchem, cat. S1067), and gastrin (Tocris, cat. 3006).
[…]
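Also: spheroids exposed to the agents for seven days before readout.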
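For viability, T/C in this document: percent viability relative to DMSO vehicle control wells taken as 100%.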

O=C(NO)c1cnc(N2CCN(S(=O)(=O)c3ccc4ccccc4c3)CC2)nc1 + CN(C)c1ccc(Nc2c3ccc(NC(=O)CCN4CCCC4)cc3nc3cc(NC(=O)CCN4CCCC4)ccc23)cc1
6.46: pIC50 (curve of first compound, second compound 0.316 µM)
6.37: pIC50 (curve of first compound, second compound 0.1 µM)
6.55: pIC50 (curve of first compound, second compound 3.16 µM)
inactive: viability, T/C (second compound 0.0316 µM, first compound 0.0316 µM) 112% | viability, T/C (second compound 0.0316 µM, first compound 0.1 µM) 107% | viability, T/C (second compound 0.0316 µM, first compound 0.316 µM) 55.2% | viability, T/C (second compound 0.1 µM, first compound 0.0316 µM) 105% | viability, T/C (second compound 0.1 µM, first compound 0.1 µM) 106% | viability, T/C (second compound 0.1 µM, first compound 0.316 µM) 64.2% | viability, T/C (second compound 0.316 µM, first compound 0.0316 µM) 106% | viability, T/C (second compound 0.316 µM, first compound 0.1 µM) 108% | viability, T/C (second compound 0.316 µM, first compound 0.316 µM) 52.9% | viability, T/C (second compound 1 µM, first compound 0.0316 µM) 100% | viability, T/C (second compound 1 µM, first compound 0.1 µM) 108% | viability, T/C (second compound 1 µM, first compound 0.316 µM) 39.9% | viability, T/C (second compound 3.16 µM, first compound 0.0316 µM) 97.1% | viability, T/C (second compound 3.16 µM, first compound 0.1 µM) 107% | viability, T/C (second compound 3.16 µM, first compound 0.316 µM) 43.6% | viability, T/C (second compound 10 µM, first compound 0.0316 µM) 101% | viability, T/C (second compound 10 µM, first compound 0.1 µM) 106%
6.72: pIC50 (curve of first compound, second compound 10 µM)
6.44: pIC50 (curve of first compound, second compound 0.0316 µM)
6.58: pIC50 (curve of first compound, second compound 1 µM)
active: viability, T/C (second compound 0.0316 µM, first compound 1 µM) 9.1% | viability, T/C (second compound 0.0316 µM, first compound 3.16 µM) 1.51% | viability, T/C (second compound 0.0316 µM, first compound 10 µM) 0.76% | viability, T/C (second compound 0.1 µM, first compound 1 µM) 10.4% | viability, T/C (second compound 0.1 µM, first compound 3.16 µM) 1.4% | viability, T/C (second compound 0.1 µM, first compound 10 µM) 0.24% | viability, T/C (second compound 0.316 µM, first compound 1 µM) 7.46% | viability, T/C (second compound 0.316 µM, first compound 3.16 µM) 1.19% | viability, T/C (second compound 0.316 µM, first compound 10 µM) 0.23% | viability, T/C (second compound 1 µM, first compound 1 µM) 8.91% | viability, T/C (second compound 1 µM, first compound 3.16 µM) 1.33% | viability, T/C (second compound 1 µM, first compound 10 µM) 0.27% | viability, T/C (second compound 3.16 µM, first compound 1 µM) 5.36% | viability, T/C (second compound 3.16 µM, first compound 3.16 µM) 0.77% | viability, T/C (second compound 3.16 µM, first compound 10 µM) 0.21% | viability, T/C (second compound 10 µM, first compound 0.316 µM) 7.93% | viability, T/C (second compound 10 µM, first compound 1 µM) 1.01% | viability, T/C (second compound 10 µM, first compound 3.16 µM) 0.44% | viability, T/C (second compound 10 µM, first compound 10 µM) 0.14%

CN(C)c1ccc(Nc2c3ccc(NC(=O)CCN4CCCC4)cc3nc3cc(NC(=O)CCN4CCCC4)ccc23)cc1
inactive: viability, T/C (compound 0.0316 µM) 104% [middle of 12 runs] | viability, T/C (compound 0.1 µM) 107% [middle of 12 runs] | viability, T/C (compound 0.316 µM) 108% [middle of 11 runs] | viability, T/C (compound 1 µM) 108% [middle of 12 runs] | viability, T/C (compound 3.16 µM) 98.7% [middle of 12 runs] | viability, T/C (compound 10 µM) 99.8% [middle of 12 runs]
< 5.00: pIC50 (compound alone, run of 03/26/2024)

C=CCn1c(=O)c2cnc(Nc3ccc(N4CCN(C)CC4)cc3)nc2n1-c1cccc(C(C)(C)O)n1
5.74 and 5.72 and 5.80: pIC50 (curve of compound)
inactive: viability, T/C (compound 0.0316 µM) 102% and 99.9% and 97.9% | viability, T/C (compound 0.1 µM) 105% and 97.2% and 108% | viability, T/C (compound 0.316 µM) 110% and 113% and 120% | viability, T/C (compound 1 µM) 101% and 105% and 81.8%
active: viability, T/C (compound 3.16 µM) 4.65% and 8.05% and 2.6% | viability, T/C (compound 10 µM) 1.72% and 1.84% and 1.48%

Cc1cccc(N(C)C(=O)C2C(O)CCN2c2nc(C)cc(C(F)(F)F)c2C#N)c1 (stereo not drawn)
inactive: viability, T/C (compound 0.0316 µM) 92% and 111% and 99.9% | viability, T/C (compound 0.1 µM) 98.4% and 97.2% and 95.8% | viability, T/C (compound 0.316 µM) 103% (2×) and 109% | viability, T/C (compound 1 µM) 94.9% and 98% and 99.5% | viability, T/C (compound 3.16 µM) 107% and 106% and 89.2% | viability, T/C (compound 10 µM) 102% and 107% (2×)
< 5.00: pIC50 (curve of compound)
